Measured values published in paper PMC12118337, “Development of a Peptide Inhibitor Targeting the C‐SH2 Domain of the SHP2 Phosphatase” (Chembiochem, 2025).
pKd: −log10 of the molar value. Residues, ends and D or L forms follow the SMILES beside them. *: point of attachment. 5FAM = O=C1OC2(c3ccc(O)cc3Oc3cc(O)ccc32)c2ccc(C(=O)*)cc21; X1 = O=C(O)C(C(=O)O)*

Molecular target: T1, SHP2 N‐SH2 domain (Homo sapiens, UniProt Q06124)
T1 construct: SHP2 N-SH2 domain (1–105), C-SH2 domain (106–220), PTP domain (224–541) and; His6 (pETM22 vector) (N, cleaved yes); made in house; host or cells: E. coli BL21(DE3)
T1 sequence (Q06124 1-105): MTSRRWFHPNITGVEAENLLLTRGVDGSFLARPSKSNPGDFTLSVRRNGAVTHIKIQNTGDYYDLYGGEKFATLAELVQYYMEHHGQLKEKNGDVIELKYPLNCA
Experiment: Fluorescence polarization (FP) binding assay, SHP2 N-SH2 domain
Conditions: 100 nM FAM-labelled peptide, increasing N-SH2 protein, 50 mM HEPES pH 7.5, 150 mM NaCl, 1 mM EDTA, 0.05% Tween 20, FP at 10 min, three independent experiments in technical triplicates, read-out: K D ± SEM, N‐SH2 (FP)
Experimental: buffer and stored in 5 mL binding buffer at 4°C. His-tagged 3C protease (0.5 mg; EMBL) was added to the pooled eluted fractions and dialysed using Spectra Por Dialysis Tubing (MWCO 6-8 kDa, 23 mm; Spectrum Labs) in 1 L of binding buffer at 4°C for 3 hours, then overnight in fresh buffer. A new column was prepared by loading 2 mL Ni-NTA Agarose (Invitrogen) as a 50% slurry in EtOH. The column was washed with 10 mL H2O to remove the EtOH and equilibrated with 10 mL binding buffer. The protein/3C protease mixture was loaded onto the column and incubated for 1 hour at 4°C on a rocker. The flow through containing the protein was collected, the column was washed with 100 mL binding buffer and the 3C protease was eluted with 5 mL elution buffer. Protein purification was monitored by SDS-PAGE using NuPAGE 4-12% Bis-Tris Protein Gels (Invitrogen) run in MOPS buffer (50 mM MOPS, 50 mM Tris-HCl pH 7.7, 1 mM EDTA, 0.1% SDS) followed by Coomassie staining using Coomassie Brilliant Blue (Roth). The purified protein was dialysed into the final storage buffer (50 mM HEPES pH 7.5, 150 mM NaCl, 2 mM DTT, 20% glycerol). Aliquots were prepared and stored at -80°C until required. […]
4. Fluorescence polarization
Fluorescence polarization (FP) was used to measure the binding of FAM-labelled peptides to the SHP2 C-SH2, SHP2 N-SH2, SHP2 PTP, CSK SH2 or Src SH2 domains. Each peptide was added to increasing concentrations of SHP2 C-SH2, SHP2 N-SH2, SHP2 PTP, CSK SH2 or Src SH2 protein in FP buffer (50 mM HEPES pH 7.5, 150 mM NaCl, 1 mM EDTA, 0.05% Tween 20) to give a final peptide […]
concentration of 100 nM in a final volume of 200 µL. For baseline subtraction, each peptide was added to FP buffer, instead of protein, with a final peptide concentration of 100 nM in a final volume of 200 µL. Samples were mixed gently then 3 x 60 µL of each sample was transferred into triplicate wells in a 96-well plate (OptiPlate-96 F Black; PerkinElmer). The FP was immediately measured on a Synergy H1 Microplate Reader (BioTek) with the excitation and emission monitored at 485 nm and 528 nm, respectively, over 30 minutes. FP values were automatically calculated by the Gen5 3.03 (BioTek) software associated with the microplate reader. Data were analysed in Excel 2016 by subtracting baseline values from FP values at 10 minutes. Data were then further analysed in GraphPad Prism 6 by plotting the baseline subtracted FP values against the protein concentration and fitting the data to a variable slope model of non-linear regression to obtain the KD values. Data are from three independent experiments, each performed in technical triplicates.
5. Isothermal titration calorimetry […]
Analysis Software (Malvern Panalytical). For the data analysis, a 1:1 binding stoichiometry between the Ac-ITSM(pTyr) and SH2 domain was assumed. ITC measurements were performed once.

CC[C@H](C)[C@H](NC(=O)[C@@H](NC(=O)[C@H](C)NC(=O)[C@H](Cc1ccc(OC(C(=O)O)C(=O)O)cc1)NC(=O)[C@H](CCC(=O)O)NC(=O)[C@@H](NC(=O)[C@H](CCC(N)=O)NC(=O)c1ccc2c(c1)C(=O)OC21c2ccc(O)cc2Oc2cc(O)ccc21)[C@@H](C)O)[C@@H](C)O)C(=O)N[C@@H](CCCCN)C(=O)N[C@@H](Cc1c[nH]cn1)C(=O)N1CCC[C@H]1C(N)=O [peptide 26] (5FAM-QTEY(X1)ATIKHP-NH2)
pKd: < 4.49
